# Results published in patent US20120064174A1, “METHOD FOR STIMULATING HAIR GROWTH” (LEGACY HEALTHCARE HOLDING LTD., priority 2010, published 2012).
# Where “and” joins values, the source holds several entries; their conditions need not be identical. Equal entries are not always repeated.
# Tested on: scalp of male volunteers
# Test: Double-blind placebo-controlled clinical study, hair diameter measurement by hair clipping
# Format: in vivo, human
# Settings: after 32-51 days of treatment, one volunteer per row
# Description: […] The male volunteers had been under treatment of a 5-alpha-reductase inhibitor treatment (Finasteride 1 mg) started within the last 3 months, or for the last three years. The first objective is to assess if the hair diameter of volunteers under a 5-alpha-reductase inhibitor (Finasteride 1 mg) and Cellium (TRADEMARK) GC 210 mg/mL is higher than on volunteers under a 5-alpha-reductase inhibitor (Finasteride 1 mg) and placebo only. The hair diameters were compared using a starting or initial hair diameter measurement and a post-study hair diameter measurement as quantified later herein. The second objective is to evaluate the cosmetic acceptance in the studied population. A prospective, double-blind, monocentric, randomized testing along with a placebo testing is conducted with two parallel groups. […] Information on self-assessed effectiveness, appreciation, and overall satisfaction was solicited from volunteers using a questionnaire. […] Exemplary secondary criteria include photographic documentation for qualitative purposes and also self-assessed effectiveness, appreciation, and overall satisfaction as indicated by a questionnaire given to participants. […]
compound,measurement,setting,value
"CC(C)(C)NC(=O)[C@H]1CC[C@H]2[C@@H]3CC[C@H]4NC(=O)C=C[C@]4(C)[C@H]3CC[C@]12C [Finasteride + Placebo, Finasteride]",Variation of diameter (in %),relative to first diameter,4.4% and −0.7% and −2.4%
same,Variation of diameter (μm),second minus first diameter,2.2 μm and −0.3 μm and −1.2 μm
